From patent US8952024B2, “Herbicidal pyrimidone derivatives” (E I du Pont de Nemours and Company, priority 2009, dated 2015)

Columns and labels:
Type in all cases: in vivo
[1] = test system: barnyardgrass (Echinochloa crus-galli); test: Test A pre-/postemergence plant response; conditions: for Barnyardgrass plant response rating: visual injury, 0 to 100 scale (0 no effect, 100 complete control), approx. ten days
In short: (§1)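 Each species was treated preemergence via directed soil spray and postemergence at the one- to two-leaf stage, with compounds formulated in a non-phytotoxic solvent plus surfactant. Visual injury relative to untreated controls was rated after about ten days on a 0–100 scale.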

corn (Zea mays) = test: Test A pre-/postemergence plant response; conditions: for Corn plant response rating: visual injury, 0 to 100 scale (0 no effect, 100 complete control), approx. ten days
In short: as §1

[2] = test system: giant foxtail (Setaria faberii); test: Test A pre-/postemergence plant response; conditions: for Foxtail, Giant plant response rating: visual injury, 0 to 100 scale (0 no effect, 100 complete control), approx. ten days
In short: as §1

[3] = test system: large crabgrass (Digitaria sanguinalis); test: Test A pre-/postemergence plant response; conditions: for Crabgrass, Large plant response rating: visual injury, 0 to 100 scale (0 no effect, 100 complete control), approx. ten days
In short: as §1

[4] = test system: morningglory (Ipomoea spp.); test: Test A pre-/postemergence plant response; conditions: for Morningglory plant response rating: visual injury, 0 to 100 scale (0 no effect, 100 complete control), approx. ten days
In short: as §1

[5] = test system: pigweed (Amaranthus retroflexus); test: Test A pre-/postemergence plant response; conditions: for Pigweed plant response rating: visual injury, 0 to 100 scale (0 no effect, 100 complete control), approx. ten days
In short: as §1

[6] = test system: velvetleaf (Abutilon theophrasti); test: Test A pre-/postemergence plant response; conditions: for Velvetleaf plant response rating: visual injury, 0 to 100 scale (0 no effect, 100 complete control), approx. ten days
In short: as §1

[7] = test system: wheat (Triticum aestivum); test: Test A pre-/postemergence plant response; conditions: for Wheat plant response rating: visual injury, 0 to 100 scale (0 no effect, 100 complete control), approx. ten days
In short: as §1

[8] = test system: barnyardgrass (Echinochloa crus-galli); test: Test B flooded paddy test; conditions: for Plant response rating, Flood, Barnyardgrass: 250 g ai/ha, flooded paddy test, visual rating on 0 to 100 scale (0 no effect, 100 complete control) after 13 to 15 days; for Plant response rating, Barnyardgrass: Flood (flooded paddy test), 13 to 15 days; for Barnyardgrass plant response rating: Flood, 31 g ai/ha, scale 0 to 100 (0 no effect, 100 complete control)
In short: (§2)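 Ratings are visual, 0–100 (100 = complete control), taken versus untreated controls 13 to 15 days after treatment in the greenhouse. Compound went straight into paddy water held 3 cm above soil, applied to 2-leaf-stage plants of four species.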

[9] = test system: ducksalad (Heteranthera limosa); test: Test B flooded paddy test; conditions: for Plant response rating, Flood, Ducksalad: 250 g ai/ha, flooded paddy test, visual rating on 0 to 100 scale (0 no effect, 100 complete control) after 13 to 15 days; for Plant response rating, Ducksalad: Flood (flooded paddy test), 13 to 15 days; for Ducksalad plant response rating: Flood, 31 g ai/ha, scale 0 to 100 (0 no effect, 100 complete control)
In short: as §2

rice (Oryza sativa) = test: Test B flooded paddy test; conditions: for Plant response rating, Flood, Rice: 250 g ai/ha, flooded paddy test, visual rating on 0 to 100 scale (0 no effect, 100 complete control) after 13 to 15 days; for Plant response rating, Rice: Flood (flooded paddy test), 13 to 15 days; for Rice plant response rating: Flood, 31 g ai/ha, scale 0 to 100 (0 no effect, 100 complete control)
In short: as §2

[10] = test system: umbrella sedge (Cyperus difformis); test: Test B flooded paddy test; conditions: for Plant response rating, Flood, Sedge, Umbrella: 250 g ai/ha, flooded paddy test, visual rating on 0 to 100 scale (0 no effect, 100 complete control) after 13 to 15 days; for Plant response rating, Sedge, Umbrella: Flood (flooded paddy test), 13 to 15 days; for Sedge, Umbrella plant response rating: Flood, 31 g ai/ha, scale 0 to 100 (0 no effect, 100 complete control)
In short: as §2

[11] = Postemergence, 125 g ai/ha, 0 to 100 scale where 0 is no effect and 100 is complete control
[12] = Preemergence, 125 g ai/ha, 0 to 100 scale, 0 = no effect, 100 = complete control
[13] = Preemergence, 500 g ai/ha, 0 to 100 scale, 0 = no effect, 100 = complete control
[14] = 62 g ai/ha, scale of 0 to 100 where 0 is no effect and 100 is complete control
[15] = 125 g ai/ha, scale 0 to 100, 0 is no effect, 100 is complete control

## CCc1ccc(-n2c(-c3cc(F)cc(F)c3)ncc(C(=O)C3=C(O)CCCC3=O)c2=O)cc1 [Compound 158]
[1]; [11]
  Plant response rating, Barnyardgrass: 90
[1]; Postemergence, 500 g ai/ha
  Barnyardgrass plant response rating: 90
[1]; [12]
  Plant response rating, Barnyardgrass: 20
[1]; [13]
  Plant response rating, Barnyardgrass: 80
Corn (Zea mays); [11]
  Plant response rating, Corn: 10
Corn (Zea mays); Postemergence, 500 g ai/ha
  Corn plant response rating: 50
Corn (Zea mays); [12]
  Plant response rating, Corn: 0
Corn (Zea mays); [13]
  Plant response rating, Corn: 20
[2]; [11]
  Plant response rating, Foxtail, Giant: 70
[2]; Postemergence, 500 g ai/ha
  Foxtail, Giant plant response rating: 90
[2]; [12]
  Plant response rating, Foxtail, Giant: 10
[2]; [13]
  Plant response rating, Foxtail, Giant: 80
[3]; [11]
  Plant response rating, Crabgrass, Large: 70
[3]; Postemergence, 500 g ai/ha
  Crabgrass, Large plant response rating: 100
[3]; [12]
  Plant response rating, Crabgrass, Large: 70
[3]; [13]
  Plant response rating, Crabgrass, Large: 100
[4]; [11]
  Plant response rating, Morningglory: 70
[4]; Postemergence, 500 g ai/ha
  Morningglory plant response rating: 100
[4]; [12]
  Plant response rating, Morningglory: 0
[4]; [13]
  Plant response rating, Morningglory: 80
[5]; [11]
  Plant response rating, Pigweed: 100
[5]; Postemergence, 500 g ai/ha
  Pigweed plant response rating: 100
[5]; [12]
  Plant response rating, Pigweed: 100
[5]; [13]
  Plant response rating, Pigweed: 100
[6]; [11]
  Plant response rating, Velvetleaf: 100
[6]; Postemergence, 500 g ai/ha
  Velvetleaf plant response rating: 100
[6]; [12]
  Plant response rating, Velvetleaf: 50
[6]; [13]
  Plant response rating, Velvetleaf: 80
[7]; [11]
  Plant response rating, Wheat: 0
[7]; Postemergence, 500 g ai/ha
  Wheat plant response rating: 50
[7]; [12]
  Plant response rating, Wheat: 0
[7]; [13]
  Plant response rating, Wheat: 10
[8]
  Plant response rating, Flood, Barnyardgrass: 60
  Barnyardgrass plant response rating: 20
[8]; [14]
  Plant response rating, Barnyardgrass: 20
[8]; [15]
  Plant response rating, Barnyardgrass: 20
[9]
  Plant response rating, Flood, Ducksalad: 100
  Ducksalad plant response rating: 50
[9]; [14]
  Plant response rating, Ducksalad: 75
[9]; [15]
  Plant response rating, Ducksalad: 100
Rice (Oryza sativa)
  Plant response rating, Flood, Rice: 85
  Rice plant response rating: 20
Rice (Oryza sativa); [14]
  Plant response rating, Rice: 30
Rice (Oryza sativa); [15]
  Plant response rating, Rice: 40
[10]
  Plant response rating, Flood, Sedge, Umbrella: 100
  Sedge, Umbrella plant response rating: 70
[10]; [14]
  Plant response rating, Sedge, Umbrella: 85
[10]; [15]
  Plant response rating, Sedge, Umbrella: 100

## O=C1CCCC(O)=C1C(=O)c1cnc(-c2cc(F)cc(F)c2)n(-c2ccccc2)c1=O [Compound 161]
[1]; [11]
  Plant response rating, Barnyardgrass: 30
[1]; Postemergence, 500 g ai/ha
  Barnyardgrass plant response rating: 90
[1]; [12]
  Plant response rating, Barnyardgrass: 10
[1]; [13]
  Plant response rating, Barnyardgrass: 90
Corn (Zea mays); [11]
  Plant response rating, Corn: 0
Corn (Zea mays); Postemergence, 500 g ai/ha
  Corn plant response rating: 10
Corn (Zea mays); [12]
  Plant response rating, Corn: 0
Corn (Zea mays); [13]
  Plant response rating, Corn: 0
[2]; [11]
  Plant response rating, Foxtail, Giant: 40
[2]; Postemergence, 500 g ai/ha
  Foxtail, Giant plant response rating: 90
[2]; [12]
  Plant response rating, Foxtail, Giant: 50
[2]; [13]
  Plant response rating, Foxtail, Giant: 80
[3]; [11]
  Plant response rating, Crabgrass, Large: 60
[3]; Postemergence, 500 g ai/ha
  Crabgrass, Large plant response rating: 90
[3]; [12]
  Plant response rating, Crabgrass, Large: 50
[3]; [13]
  Plant response rating, Crabgrass, Large: 90
[4]; [11]
  Plant response rating, Morningglory: 60
[4]; Postemergence, 500 g ai/ha
  Morningglory plant response rating: 100
[4]; [12]
  Plant response rating, Morningglory: 0
[4]; [13]
  Plant response rating, Morningglory: 40
[5]; [11]
  Plant response rating, Pigweed: 80
[5]; Postemergence, 500 g ai/ha
  Pigweed plant response rating: 100
[5]; [12]
  Plant response rating, Pigweed: 90
[5]; [13]
  Plant response rating, Pigweed: 100
[6]; [11]
  Plant response rating, Velvetleaf: 100
[6]; Postemergence, 500 g ai/ha
  Velvetleaf plant response rating: 100
[6]; [12]
  Plant response rating, Velvetleaf: 70
[6]; [13]
  Plant response rating, Velvetleaf: 90
[7]; [11]
  Plant response rating, Wheat: 0
[7]; Postemergence, 500 g ai/ha
  Wheat plant response rating: 0
[7]; [12]
  Plant response rating, Wheat: 0
[7]; [13]
  Plant response rating, Wheat: 0
[8]
  Plant response rating, Flood, Barnyardgrass: 30
  Barnyardgrass plant response rating: 0
[8]; [14]
  Plant response rating, Barnyardgrass: 0
[8]; [15]
  Plant response rating, Barnyardgrass: 0
[9]
  Plant response rating, Flood, Ducksalad: 80
  Ducksalad plant response rating: 0
[9]; [14]
  Plant response rating, Ducksalad: 0
[9]; [15]
  Plant response rating, Ducksalad: 0
Rice (Oryza sativa)
  Plant response rating, Flood, Rice: 50
  Rice plant response rating: 25
Rice (Oryza sativa); [14]
  Plant response rating, Rice: 50
Rice (Oryza sativa); [15]
  Plant response rating, Rice: 45
[10]
  Plant response rating, Flood, Sedge, Umbrella: 60
  Sedge, Umbrella plant response rating: 0
[10]; [14]
  Plant response rating, Sedge, Umbrella: 0
[10]; [15]
  Plant response rating, Sedge, Umbrella: 0

## Cc1cc(F)ccc1-n1c(-c2cccc(Br)c2)ncc(C(=O)C2=C(O)CCCC2=O)c1=O [Compound 166]
[1]; [11]
  Plant response rating, Barnyardgrass: 80
[1]; Postemergence, 500 g ai/ha
  Barnyardgrass plant response rating: 100
[1]; [12]
  Plant response rating, Barnyardgrass: 0
[1]; [13]
  Plant response rating, Barnyardgrass: 20
Corn (Zea mays); [11]
  Plant response rating, Corn: 30
Corn (Zea mays); Postemergence, 500 g ai/ha
  Corn plant response rating: 40
Corn (Zea mays); [12]
  Plant response rating, Corn: 0
Corn (Zea mays); [13]
  Plant response rating, Corn: 0
[2]; [11]
  Plant response rating, Foxtail, Giant: 60
[2]; Postemergence, 500 g ai/ha
  Foxtail, Giant plant response rating: 90
[2]; [12]
  Plant response rating, Foxtail, Giant: 0
[2]; [13]
  Plant response rating, Foxtail, Giant: 20
[3]; [11]
  Plant response rating, Crabgrass, Large: 40
[3]; Postemergence, 500 g ai/ha
  Crabgrass, Large plant response rating: 90
[3]; [12]
  Plant response rating, Crabgrass, Large: 10
[3]; [13]
  Plant response rating, Crabgrass, Large: 70
[4]; [11]
  Plant response rating, Morningglory: 100
[4]; [12]
  Plant response rating, Morningglory: 0
[4]; [13]
  Plant response rating, Morningglory: 0
[5]; [11]
  Plant response rating, Pigweed: 70
[5]; Postemergence, 500 g ai/ha
  Pigweed plant response rating: 100
[5]; [12]
  Plant response rating, Pigweed: 0
[5]; [13]
  Plant response rating, Pigweed: 40
[6]; [11]
  Plant response rating, Velvetleaf: 100
[6]; Postemergence, 500 g ai/ha
  Velvetleaf plant response rating: 100
[6]; [12]
  Plant response rating, Velvetleaf: 40
[6]; [13]
  Plant response rating, Velvetleaf: 100
[7]; [11]
  Plant response rating, Wheat: 0
[7]; Postemergence, 500 g ai/ha
  Wheat plant response rating: 0
[7]; [12]
  Plant response rating, Wheat: 0
[7]; [13]
  Plant response rating, Wheat: 0
[8]; [15]
  Plant response rating, Barnyardgrass: 20
[8]
  Barnyardgrass plant response rating: 0
[9]; [15]
  Plant response rating, Ducksalad: 60
[9]
  Ducksalad plant response rating: 0
Rice (Oryza sativa); [15]
  Plant response rating, Rice: 0
Rice (Oryza sativa)
  Rice plant response rating: 0
[10]; [15]
  Plant response rating, Sedge, Umbrella: 70
[10]
  Sedge, Umbrella plant response rating: 50
